According to PMC6804006, “Synthesis, Biological Activities and Docking Studies of Novel 4-(Arylaminomethyl)benzamide Derivatives as Potential Tyrosine Kinase Inhibitors” (Molecules, 2019):

Columns and labels:
[1] = tested on: K-562 (chronic myelogenous leukemia); experiment: MTT anti-proliferative assay, K-562; type: cell-based; details: Homo sapiens, K562, 48 h, 50% growth inhibition
Protocol: (§1) Each in vitro experiment was performed at least in triplicate, and the standard deviation of absorbance was less than 10% of the mean. For the in vitro assays, a stock solution (1% DMSO in the appropriate buffer with the tested compound diluted under sonication) was prepared from which several dilutions were made with the appropriate buffer.
(§2) Human cell lines were obtained from the Institute of Cytology, Russian Academy of Sciences. […] Cellular sensitivities to clofarabine and its lipid derivatives were measured with the MTT assay. Cells were plated in triplicate in 96-well plates (10^5 cells/well for suspended cell cultures and 5 × 10^3 cells/well for monolayer cultures); on the same day (suspended cell cultures) or on the following day (monolayer cultures), compounds were added at the appropriate dilutions. Plates were incubated under standard conditions for 48 h. Thereafter, 10 μL of MTT (Sigma) in phosphate-buffered saline (5 mg/mL) was added. The plates were incubated for an additional 4 h, and 150 μL of dimethyl sulfoxide (DMSO) was added to dissolve the formazan crystals. The optical density was read on a HALO MPR-95 Microplate Reader (Dynamica Scientific Ltd., Australia) at 570 nm. The antiproliferative effects were determined as degrees of inhibition of tumor cells (%).

[2] = tested on: HL-60 (promyelocytic leukemia); experiment: MTT anti-proliferative assay, HL-60; type: cell-based, human; details: Homo sapiens, HL-60, 48 h, 50% growth inhibition
Protocol: as §1, §2

[3] = tested on: MCF-7 (breast adenocarcinoma); experiment: MTT anti-proliferative assay, MCF-7; type: cell-based; details: Homo sapiens, MCF7, 48 h, 50% growth inhibition
Protocol: as §1, §2

HeLa (cervix carcinoma) = experiment: MTT anti-proliferative assay, HeLa; type: cell-based; details: Homo sapiens, 48 h, 50% growth inhibition
Protocol: as §1, §2

A549 (lung carcinoma) = experiment: MTT anti-proliferative assay, A-549; type: cell-based; details: Homo sapiens, 48 h, 50% growth inhibition
Protocol: as §1, §2

[4] = tested on: OKP-GS (carcinoma of the kidney); experiment: MTT anti-proliferative assay, OKP-GS; type: cell-based; details: Homo sapiens, 48 h, 50% growth inhibition
Protocol: as §1, §2

[5] = tested on: RPMI 1788 (B lymphocyte, human normal cells); experiment: MTT assay on normal cells RPMI 1788; type: cell-based; details: MTT 48 h
Protocol: as §1
Human cell lines were obtained from the Institute of Cytology, Russian Academy of Sciences. The cell lines studied were maintained in RPMI 1640 medium (AppliChem, Darmstadt, Germany) supplemented with 20% (HL-60, RPMI 1788) fetal calf serum (HyClone, Cramlington, UK), in DMEM (A 549) and Eagle’s MEM (AppliChem) (MCF7, HeLa) with 10% fetal calf serum (HyClone). Cells were cultivated at 37 °C in a humidified atmosphere of 5% CO2. Cellular sensitivities to clofarabine and its lipid derivatives were measured with the MTT assay. Cells were plated in triplicate in 96-well plates (10^5 cells/well for suspended cell cultures and 5 × 10^3 cells/well for monolayer cultures); on the same day (suspended cell cultures) or on the following day (monolayer cultures), compounds were added at the appropriate dilutions. Plates were incubated under standard conditions for 48 h. Thereafter, 10 μL of MTT (Sigma) in phosphate-buffered saline (5 mg/mL) was added. The plates were incubated for an additional 4 h, and 150 μL of dimethyl sulfoxide (DMSO) was added to dissolve the formazan crystals. The optical density was read on a HALO MPR-95 Microplate Reader (Dynamica Scientific Ltd., Australia) at 570 nm. The antiproliferative effects were determined as degrees of inhibition of tumor cells (%).

EGFR = target: T1, EGFR (Homo sapiens, UniProt P00533); experiment: ADP-Glo kinase inhibitory assay, EGFR; type: biochemical; details: read-out: % Inhibition at 10 nM, EGFR
T1 construct: purchased Promega
Protocol: (§3) We investigated the kinase selectivity of targeted compounds against eight receptor tyrosine kinases including EGFR (epidermal growth factor receptor), HER-2 and HER4 (human epidermal growth factor receptor), IGF1R (insulin like growth factor 1 receptor), InsR (gene insulin receptor), KDR (kinase insert domain receptor), and PDGFRa and PDGFRb (platelet-derived growth factor receptors). The assay was performed using the Kinase-Glo Plus luminescence kinase assay kit (TK-1+ADP-Glo™, Promega, San Diego, CA, USA). It measures kinase activity by quantitating the amount of ATP remaining in solution following a kinase reaction.
(§4) The assay was performed using a Kinase Selectivity Profiling System (TK-1+ADP-Glo™ Assay and TK-2+ADP-Glo™ Assay, Promega), where the kinase activity was measured by quantifying the amount of ADP produced during a kinase reaction. The assay is performed in two steps; firstly, after the kinase reaction, an equal volume of ADP-Glo™ Reagent is added to terminate the kinase reaction and deplete the remaining ATP. Secondly, the Kinase Detection Reagent is added to simultaneously convert ADP to ATP and allow the newly synthesized ATP to be measured using a luciferase/luciferin reaction. The luminescent signal generated is proportional to the ADP concentration produced and is correlated with kinase activity. Our compounds were diluted with kinase buffer (5% DMSO), and 1 μL of the dilution was added to a 5-μL reaction so that the final concentration of DMSO was 1% in all of reactions. All of the enzymatic reactions were conducted at 23 °C for 60 min. The 5-μL reaction mixture contained 1µL of the compound solution, 2µL of the enzyme solution, and 2 µL of kinase substrate. After the enzymatic reaction, 5 µL of ADP-Glo™ Reagent (Promega, USA) was added to each reaction, and the plate was incubated for 40 min at 23 °C. Then, 10 µL of Kinase Detection Reagent (Promega, USA) was added to each reaction, and the plate was incubated for 30 min at 23 °C. Luminescence signal was measured using an Infinite M 200 plate reader (Tecan, Switzerland).
(§5) Kinase activity assays were performed in duplicate at each concentration. The luminescence data were analyzed using the computer software, Magellan™. The difference between luminescence intensities in the absence of Kinase (Lut) and in the presence of Kinase (Luc) was defined as 100% activity (Lut − Luc).

HER-2 = target: T2, HER-2 (Homo sapiens, UniProt P04626); experiment: ADP-Glo kinase inhibitory assay, HER-2; type: biochemical; details: read-out: % Inhibition at 10 nM, HER-2
T2 construct: purchased Promega
Protocol: as §3, §4, §5

HER-4 = target: T3, HER-4 (Homo sapiens, UniProt Q15303); experiment: ADP-Glo kinase inhibitory assay, HER-4; type: biochemical; details: for inhibition at 0.01 µM: read-out: % Inhibition at 10 nM, HER-4; for inhibitory activity in relation to HER-4, in words: 10 nM, compared with imatinib
T3 construct: purchased Promega
Protocol: as §3, §4, §5

IGF1R = target: T4, IGF1R (Homo sapiens, UniProt P08069); experiment: ADP-Glo kinase inhibitory assay, IGF1R; type: biochemical; details: read-out: % Inhibition at 10 nM, IGF1R
T4 construct: purchased Promega
Protocol: as §3, §4, §5

InsR = target: T5, InsR (Homo sapiens, UniProt P06213); experiment: ADP-Glo kinase inhibitory assay, InsR; type: biochemical; details: for selectivity for the gene insulin receptor, in words: 10 nM, panel of eight receptor tyrosine kinases; for inhibition at 0.01 µM: read-out: % Inhibition at 10 nM, InsR
T5 construct: purchased Promega
Protocol: as §3, §4, §5

KDR (VEGFR2) = target: T6, KDR (VEGFR2) (Homo sapiens, UniProt P35968); experiment: ADP-Glo kinase inhibitory assay, KDR; type: biochemical; details: 10 nM
T6 construct: purchased Promega
Protocol: as §3
Vascular endothelial growth factor receptor 2 (VEGFR2), also called kinase insert domain receptor (KDR), is a tyrosine kinase receptor for VEGFs that plays a central role in tumor angiogenesis; therefore, the inhibition of VEGFR2 is a promising therapeutic strategy for inhibiting angiogenesis and tumor growth.
as §4, §5

PDGFRa = target: T7, PDGFRa (Homo sapiens, UniProt P16234); experiment: ADP-Glo kinase inhibitory assay, PDGFRa; type: biochemical; details: read-out: % Inhibition at 10 nM, PDGFRa
T7 construct: purchased Promega
Protocol: as §3, §4, §5

PDGFRb = target: T8, PDGFRb (Homo sapiens, UniProt P09619); experiment: ADP-Glo kinase inhibitory assay, PDGFRb; type: biochemical; details: read-out: % Inhibition at 10 nM, PDGFRb
T8 construct: purchased Promega
Protocol: as §3, §4, §5

T3 sequence (Q15303 26-1308): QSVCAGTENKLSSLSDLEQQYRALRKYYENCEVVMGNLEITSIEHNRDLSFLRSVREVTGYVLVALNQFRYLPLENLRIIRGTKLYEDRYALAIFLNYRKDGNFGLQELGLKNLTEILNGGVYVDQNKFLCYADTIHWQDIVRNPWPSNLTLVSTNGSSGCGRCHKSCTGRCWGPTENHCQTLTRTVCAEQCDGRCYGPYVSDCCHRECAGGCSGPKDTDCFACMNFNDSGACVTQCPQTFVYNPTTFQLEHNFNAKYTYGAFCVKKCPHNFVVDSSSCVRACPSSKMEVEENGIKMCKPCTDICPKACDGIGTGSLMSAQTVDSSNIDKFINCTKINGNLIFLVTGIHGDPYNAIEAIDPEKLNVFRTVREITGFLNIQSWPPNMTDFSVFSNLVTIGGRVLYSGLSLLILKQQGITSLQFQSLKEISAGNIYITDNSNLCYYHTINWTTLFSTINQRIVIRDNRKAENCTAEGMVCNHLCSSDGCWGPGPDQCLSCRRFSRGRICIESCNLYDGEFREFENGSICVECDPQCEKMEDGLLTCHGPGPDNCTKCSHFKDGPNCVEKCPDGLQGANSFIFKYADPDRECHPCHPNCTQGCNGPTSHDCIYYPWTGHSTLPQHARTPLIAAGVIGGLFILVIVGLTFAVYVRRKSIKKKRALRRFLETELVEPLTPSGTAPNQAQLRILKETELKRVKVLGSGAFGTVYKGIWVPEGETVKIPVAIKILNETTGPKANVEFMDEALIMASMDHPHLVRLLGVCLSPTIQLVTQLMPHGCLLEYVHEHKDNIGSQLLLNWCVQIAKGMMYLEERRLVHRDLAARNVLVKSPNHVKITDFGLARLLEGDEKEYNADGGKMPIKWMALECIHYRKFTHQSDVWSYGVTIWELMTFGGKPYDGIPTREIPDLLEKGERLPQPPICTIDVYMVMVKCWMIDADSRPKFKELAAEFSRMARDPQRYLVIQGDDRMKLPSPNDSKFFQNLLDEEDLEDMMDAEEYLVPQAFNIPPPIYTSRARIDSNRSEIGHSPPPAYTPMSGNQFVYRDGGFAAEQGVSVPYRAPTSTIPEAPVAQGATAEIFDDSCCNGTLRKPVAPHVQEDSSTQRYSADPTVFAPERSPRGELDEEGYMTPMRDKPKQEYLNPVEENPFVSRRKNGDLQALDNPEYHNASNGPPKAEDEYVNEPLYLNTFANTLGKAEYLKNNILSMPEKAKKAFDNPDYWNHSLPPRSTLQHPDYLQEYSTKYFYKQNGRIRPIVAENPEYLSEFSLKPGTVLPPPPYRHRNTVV
T6 sequence (P35968 20-1356): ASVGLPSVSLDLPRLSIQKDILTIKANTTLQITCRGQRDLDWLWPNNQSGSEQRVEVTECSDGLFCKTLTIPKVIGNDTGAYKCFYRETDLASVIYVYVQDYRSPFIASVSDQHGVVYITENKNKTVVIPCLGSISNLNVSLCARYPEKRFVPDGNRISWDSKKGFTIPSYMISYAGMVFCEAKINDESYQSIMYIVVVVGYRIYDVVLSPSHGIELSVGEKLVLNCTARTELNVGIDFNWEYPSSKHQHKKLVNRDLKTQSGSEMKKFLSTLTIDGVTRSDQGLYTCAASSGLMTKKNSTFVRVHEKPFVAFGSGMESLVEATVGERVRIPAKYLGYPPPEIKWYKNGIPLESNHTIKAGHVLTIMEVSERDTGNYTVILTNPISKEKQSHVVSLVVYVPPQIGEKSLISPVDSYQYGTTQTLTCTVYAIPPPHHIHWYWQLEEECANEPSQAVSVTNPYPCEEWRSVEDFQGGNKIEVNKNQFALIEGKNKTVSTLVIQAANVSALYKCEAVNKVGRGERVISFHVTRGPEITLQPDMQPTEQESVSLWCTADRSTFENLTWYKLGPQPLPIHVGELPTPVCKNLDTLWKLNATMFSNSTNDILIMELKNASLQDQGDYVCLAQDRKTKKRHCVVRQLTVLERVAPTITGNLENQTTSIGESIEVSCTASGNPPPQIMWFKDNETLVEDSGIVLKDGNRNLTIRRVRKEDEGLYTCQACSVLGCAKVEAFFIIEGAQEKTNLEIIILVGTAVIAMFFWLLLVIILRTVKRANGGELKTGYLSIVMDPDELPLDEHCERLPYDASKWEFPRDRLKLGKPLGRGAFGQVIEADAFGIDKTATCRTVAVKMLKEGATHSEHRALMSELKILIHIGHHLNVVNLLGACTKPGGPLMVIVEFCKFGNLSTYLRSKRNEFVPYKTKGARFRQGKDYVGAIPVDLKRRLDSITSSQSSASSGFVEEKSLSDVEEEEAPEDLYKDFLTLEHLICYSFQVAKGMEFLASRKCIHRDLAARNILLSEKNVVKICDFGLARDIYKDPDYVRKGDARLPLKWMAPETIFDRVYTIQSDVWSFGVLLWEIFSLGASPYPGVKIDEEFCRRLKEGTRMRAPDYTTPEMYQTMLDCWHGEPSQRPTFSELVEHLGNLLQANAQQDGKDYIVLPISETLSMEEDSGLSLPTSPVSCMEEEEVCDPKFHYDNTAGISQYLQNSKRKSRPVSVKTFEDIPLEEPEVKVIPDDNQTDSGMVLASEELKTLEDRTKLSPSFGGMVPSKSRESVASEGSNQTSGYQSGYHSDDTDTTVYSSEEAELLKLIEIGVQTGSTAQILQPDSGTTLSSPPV
T2 sequence (P04626 23-1255): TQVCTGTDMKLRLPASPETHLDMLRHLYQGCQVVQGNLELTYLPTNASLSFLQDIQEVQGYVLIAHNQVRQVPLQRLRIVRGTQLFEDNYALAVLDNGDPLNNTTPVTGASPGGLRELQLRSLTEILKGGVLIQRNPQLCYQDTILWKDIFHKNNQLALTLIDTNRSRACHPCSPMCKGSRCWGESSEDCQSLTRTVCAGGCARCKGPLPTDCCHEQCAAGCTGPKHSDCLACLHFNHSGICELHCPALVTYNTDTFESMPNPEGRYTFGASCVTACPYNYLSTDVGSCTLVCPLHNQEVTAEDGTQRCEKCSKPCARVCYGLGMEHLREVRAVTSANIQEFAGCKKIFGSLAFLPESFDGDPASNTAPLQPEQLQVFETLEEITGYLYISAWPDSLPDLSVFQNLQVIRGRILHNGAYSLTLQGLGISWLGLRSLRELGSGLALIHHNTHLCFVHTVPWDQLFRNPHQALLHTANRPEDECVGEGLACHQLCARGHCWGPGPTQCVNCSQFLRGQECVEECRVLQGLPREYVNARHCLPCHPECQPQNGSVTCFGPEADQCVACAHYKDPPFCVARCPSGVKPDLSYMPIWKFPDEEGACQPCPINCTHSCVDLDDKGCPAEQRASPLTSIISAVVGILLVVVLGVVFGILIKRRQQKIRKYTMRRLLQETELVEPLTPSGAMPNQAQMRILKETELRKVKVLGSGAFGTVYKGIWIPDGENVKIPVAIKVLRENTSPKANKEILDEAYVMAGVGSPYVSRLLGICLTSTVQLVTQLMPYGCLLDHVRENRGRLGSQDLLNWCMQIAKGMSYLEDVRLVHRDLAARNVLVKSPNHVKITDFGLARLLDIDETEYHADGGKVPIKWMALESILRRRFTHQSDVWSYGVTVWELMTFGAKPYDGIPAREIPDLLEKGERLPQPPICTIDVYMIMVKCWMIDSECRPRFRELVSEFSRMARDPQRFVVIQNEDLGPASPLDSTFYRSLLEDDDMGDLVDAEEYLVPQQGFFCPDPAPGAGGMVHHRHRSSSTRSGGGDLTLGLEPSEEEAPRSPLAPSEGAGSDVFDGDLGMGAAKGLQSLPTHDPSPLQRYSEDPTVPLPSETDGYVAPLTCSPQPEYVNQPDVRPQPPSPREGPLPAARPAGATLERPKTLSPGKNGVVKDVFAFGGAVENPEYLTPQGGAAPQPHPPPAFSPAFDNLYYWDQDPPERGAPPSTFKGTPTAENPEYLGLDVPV
T8 sequence (P09619 33-1106): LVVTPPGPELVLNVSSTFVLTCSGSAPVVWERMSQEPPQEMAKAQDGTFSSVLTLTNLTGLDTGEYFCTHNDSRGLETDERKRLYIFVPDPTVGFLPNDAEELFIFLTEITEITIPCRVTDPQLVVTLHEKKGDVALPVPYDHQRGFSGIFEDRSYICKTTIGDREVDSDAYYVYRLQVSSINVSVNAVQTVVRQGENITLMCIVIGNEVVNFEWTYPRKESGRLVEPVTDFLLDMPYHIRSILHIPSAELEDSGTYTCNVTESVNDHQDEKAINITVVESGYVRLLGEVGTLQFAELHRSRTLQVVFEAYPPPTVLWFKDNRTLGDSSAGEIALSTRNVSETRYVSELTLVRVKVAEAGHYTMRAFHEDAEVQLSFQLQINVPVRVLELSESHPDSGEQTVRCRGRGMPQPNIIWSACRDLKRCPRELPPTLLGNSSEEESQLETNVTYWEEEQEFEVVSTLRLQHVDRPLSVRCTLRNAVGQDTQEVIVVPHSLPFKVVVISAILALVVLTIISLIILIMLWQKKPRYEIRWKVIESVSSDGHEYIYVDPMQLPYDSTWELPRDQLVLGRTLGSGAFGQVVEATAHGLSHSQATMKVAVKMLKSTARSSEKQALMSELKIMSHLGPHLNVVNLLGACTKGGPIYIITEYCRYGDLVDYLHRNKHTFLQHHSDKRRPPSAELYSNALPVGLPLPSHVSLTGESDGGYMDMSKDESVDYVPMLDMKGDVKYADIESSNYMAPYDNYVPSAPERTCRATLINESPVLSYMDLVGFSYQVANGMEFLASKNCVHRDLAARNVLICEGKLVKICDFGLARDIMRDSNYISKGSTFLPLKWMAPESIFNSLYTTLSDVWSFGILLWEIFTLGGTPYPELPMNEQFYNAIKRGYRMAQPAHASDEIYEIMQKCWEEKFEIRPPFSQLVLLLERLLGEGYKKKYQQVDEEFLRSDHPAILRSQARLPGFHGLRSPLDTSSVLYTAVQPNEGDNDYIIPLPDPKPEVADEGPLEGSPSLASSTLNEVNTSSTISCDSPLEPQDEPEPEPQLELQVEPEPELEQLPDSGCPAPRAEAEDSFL

| SMILES | IC50 [1] | IC50 [2] | IC50 [3] | IC50 (HeLa (cervix carcinoma)) | IC50 (A549 (lung carcinoma)) | IC50 [4] | inhibition at 0.01 µM (EGFR) | inhibition at 0.01 µM (HER-2) | inhibition at 0.01 µM (HER-4) | inhibition at 0.01 µM (IGF1R) | selectivity for the gene insulin receptor, in words (InsR) | inhibition at 0.01 µM (InsR) | inhibition at 0.01 µM (KDR (VEGFR2)) | inhibition at 0.01 µM (PDGFRa) | inhibition at 0.01 µM (PDGFRb) | melting point | inhibitory activity in relation to HER-4, in words (HER-4) | inhibition at 100 µM [5] |
| --- | --- | --- | --- | --- | --- | --- | --- | --- | --- | --- | --- | --- | --- | --- | --- | --- | --- | --- |
| Cc1cn(-c2cc(NC(=O)c3ccc(CCl)cc3)cc(C(F)(F)F)c2)cn1 [Compound 5, 4-(Chloromethyl)-N-(3-(4-methyl-1H-imidazol-1-yl)-5-(trifluoromethyl)phenyl)benzamide] | 69 µM | 45 µM | 54 µM | 51.8 µM | 53.5 µM | 70 µM | 0% | 0% | 0% | 0% | high selectivity | 57% | 0% | 0% | 0% | – | – | < 0.1% |
| Cc1cn(-c2cc(NCc3ccc(C(=O)Nc4cc(-n5cnc(C)c5)cc(C(F)(F)F)c4)cc3)cc(C(F)(F)F)c2)cn1 [Compound 8, N-(3-(4-methyl-1H-imidazol-1-yl)-5-(trifluoromethyl)phenyl)-4-(((3-(4-methyl-1H-imidazol-1-yl)-5-(trifluoromethyl)phenyl)amino)methyl)benzamide] | – | – | 9.5 µM | 87 µM | 85 µM | > 100 µM | – | – | – | – | – | – | – | – | – | 200 to 202 °C | – | 19.3% |
| CCOC(=O)CC[C@H](NC(=O)c1ccc(CNc2nccc(-c3cccnc3)n2)cc1)C(=O)OCC [Compound 23, Diethyl (4-(((4-(pyridin-3-yl)pyrimidin-2-yl)amino)methyl)benzoyl)glutamate] | 66 µM | 49 µM | – | – | – | – | 0% | 0% | 12% | 1% | – | 49% | 0% | 0% | 0% | 130 to 132 °C | – | 11.5% |
| Cc1cn(-c2cc(NC(=O)c3ccc(CN4CCN(C(=O)c5ccccc5F)CC4)cc3)cc(C(F)(F)F)c2)cn1 [Compound 28j, 4-{[4-(2-Fluorobenzoyl)piperazin-1-yl]methyl}-N-[3-(4-methyl-1H-imidazol-1-yl)-5-(trifluoromethyl)phenyl]benzamide] | 6.9 µM | 30.6 µM | 71 µM | – | > 100 µM | – | 0% | 0% | 0% | 0% | high selectivity | 50% | 0% | 8% | 2% | 106 to 109 °C | – | 6.44% |
| Cc1cn(-c2cc(NC(=O)c3ccc(CN4CCN(C(=O)c5cccnc5)CC4)cc3)cc(C(F)(F)F)c2)cn1 [Compound 28l] | 4.5 µM | 53.5 µM | 77 µM | > 100 µM | > 100 µM | > 100 µM | 0% | 0% | 51% | 0% | – | 0% | 17% | 0% | 7% | 96 to 100 °C | comparable to imatinib | – |
| Cc1cn(-c2cc(NC(=O)c3ccc(C)c(Nc4nccc(-c5cccnc5)n4)c3)cc(C(F)(F)F)c2)cn1 [Nilotinib, reference compound] | < 0.1 µM | 55 µM | – | – | – | 55 µM | – | – | – | – | – | – | – | – | – | – | – | < 0.1% |

The next lines start with results.

| IC50 [1] | IC50 [2] | IC50 [3] | IC50 (HeLa (cervix carcinoma)) | IC50 (A549 (lung carcinoma)) | IC50 [4] | inhibition at 0.01 µM (EGFR) | inhibition at 0.01 µM (HER-2) | inhibition at 0.01 µM (HER-4) | inhibition at 0.01 µM (IGF1R) | selectivity for the gene insulin receptor, in words (InsR) | inhibition at 0.01 µM (InsR) | inhibition at 0.01 µM (KDR (VEGFR2)) | inhibition at 0.01 µM (PDGFRa) | inhibition at 0.01 µM (PDGFRb) | melting point | inhibitory activity in relation to HER-4, in words (HER-4) | SMILES | inhibition at 100 µM [5] |
| --- | --- | --- | --- | --- | --- | --- | --- | --- | --- | --- | --- | --- | --- | --- | --- | --- | --- | --- |
| 51 µM | 57 µM | > 100 µM | – | > 100 µM | > 100 µM | – | – | – | – | – | – | – | – | – | 113 to 115 °C | – | Cc1cn(-c2cc(NC(=O)c3ccc(CNc4cc([N+](=O)[O-])ccc4C)cc3)cc(C(F)(F)F)c2)cn1 [Compound 9, N-(3-(4-methyl-1H-imidazol-1-yl)-5-(trifluoromethyl)phenyl)-4-(((2-methyl-5-nitrophenyl)amino)methyl)benzamide] | – |
| 3.6 µM | 38.5 µM | – | – | – | – | 0% | 0% | 43% | 0% | – | 33% | 23% | 0% | 2% | 90 to 93 °C | comparable to imatinib | Cc1cn(-c2cc(NC(=O)c3ccc(CN4CCN(C(=O)c5cccc(F)c5)CC4)cc3)cc(C(F)(F)F)c2)cn1 [Compound 28k, 4-{[4-(3-Fluorobenzoyl)piperazin-1-yl]methyl}-N-[3-(4-methyl-1H-imidazol-1-yl)-5-(trifluoromethyl)phenyl]benzamide] | 3.14% |
| – | – | 55 µM | – | 58 µM | 51 µM | – | – | – | – | – | – | – | – | – | – | – | CNC(=O)c1cc(Oc2ccc(NC(=O)Nc3ccc(Cl)c(C(F)(F)F)c3)cc2)ccn1 [Sorafenib, reference compound] | – |
